Assay results: US7423159B2, “Agent for preventing or treating neuropathy” (Takeda Pharmaceutical Company Limited, priority 2002, dated 2008)

melting point | Compound
211 to 214 °C | CCOP(=O)(Cc1ccc(NC(=O)/C=C/c2cnn(C)c2-c2cccnc2)cc1)OCC
263 to 264 °C | Cc1nc2ccccc2n1Cc1ccc(NC(=O)/C=C/c2cnn(C)c2-c2ccc(F)cc2)cc1 [Example 173, (2E)-3-[5-(4-Fluorophenyl)-1-methyl-1H-pyrazol-4-yl]-N-{4-[(2-methyl-1H-benzimidazol-1-yl)methyl]phenyl}acrylamide]
177 to 178 °C | CCOC(=O)Cc1ccc(NC(=O)/C=C/c2cnn(C)c2-c2ccc(F)cc2)cc1 [Example 109, ethyl [4-({(2E)-3-[5-(4-fluorophenyl)-1-methyl-1H-pyrazol-4-yl]prop-2-enoyl}amino)phenyl]acetate]
195 to 196 °C | Cn1ncc(/C=C/C(=O)Nc2ccc(Cc3nc4ccccc4o3)cc2)c1-c1ccc(F)cc1 [Example 107, (2E)-N-[4-(1,3-Benzoxazol-2-ylmethyl)phenyl]-3-[5-(4-fluorophenyl)-1-methyl-1H-pyrazol-4-yl]acrylamide]
195 to 197 °C | CCOC(=O)CCC(=O)NCc1ccc(NC(=O)/C=C/c2cnn(C)c2-c2ccc(F)cc2)cc1 [Example 188, Ethyl 4-{[4-({(2E)-3-[5-(4-fluorophenyl)-1-methyl-1H-pyrazol-4-yl]prop-2-enoyl}amino)benzyl]amino}-4-oxobutanoate]
138 to 139 °C | CCOP(=O)(Cc1ccc(NC(=O)/C=C/c2c(-c3ccc(F)cc3)cnn2C)cc1)OCC
110 to 112 °C | Cn1ncc(/C=C/C(=O)Nc2ccc(C(=O)c3ccccc3)cc2)c1-c1ccc(F)cc1 [Example 205, (2E)-N-(4-Benzoylphenyl)-3-[5-(4-fluorophenyl)-1-methyl-1H-pyrazol-4-yl]acrylamide]
207 to 208 °C | CCOP(=O)(Cc1ccc(NC(=O)/C=C/c2cnn(Cc3ccccc3)c2-c2ccc(F)cc2)cc1)OCC
196 to 197 °C | COC(=O)c1ccc(NC(=O)CCc2cnn(-c3ccccc3)c2-c2ccccc2)cc1 [Example 82, N-[4-(Methoxycarbonyl)phenyl]-3-(1,5-diphenyl-1H-pyrazol-4-yl)propionamide]
252 to 253 °C | Cn1ncc(/C=C/C(=O)Nc2ccc(Cc3nnn[nH]3)cc2)c1-c1ccc(F)cc1 [Example 87, (2E)-3-[5-(4-Fluorophenyl)-1-methyl-1H-pyrazol-4-yl]-N-[4-(1H-tetrazol-5-ylmethyl)phenyl]acrylamide]
192 to 193 °C | CC(=O)N(C)Cc1ccc(NC(=O)/C=C/c2cnn(C)c2-c2ccc(F)cc2)cc1 [Example 117, (2E)-N-(4-{[Acetyl(methyl)amino]methyl}phenyl)-3-[5-(4-fluorophenyl)-1-methyl-1H-pyrazol-4-yl]acrylamide]
159 to 160 °C | Cn1ncc(/C=C/C(=O)Nc2ccc(Cc3nc(C(N)=O)cs3)cc2)c1-c1ccc(F)cc1 [Example 132, 2-[4-({(2E)-3-[5-(4-fluorophenyl)-1-methyl-1H-pyrazol-4-yl]prop-2-enoyl}amino)benzyl]-1,3-thiazole-4-carboxamide]
217 to 218 °C | CCOP(=O)(Cc1ccc(NC(=O)/C=C/c2nncn2-c2ccc(F)cc2)cc1)OCC
201 to 202 °C | COP(=O)(Cc1ccc(NC(=O)/C=C/c2cnn(C)c2-c2ccco2)cc1)OC
279 to 280 °C | Cc1cc2ncn(Cc3ccc(NC(=O)/C=C/c4cnn(C)c4-c4ccc(F)cc4)cc3)c2cc1C [Example 172, (2E)-N-(4-[(5,6-Dimethyl-1H-benzimidazol-1-yl)methyl]phenyl}-3-[5-(4-fluorophenyl)-1-methyl-1H-pyrazol-4-yl]acrylamide]
209 to 210 °C | Cn1ncc(/C=C/C(=O)Nc2ccc(Cc3nccs3)cc2)c1-c1ccc(F)cc1 [Example 128, (2E)-3-[5-(4-Fluorophenyl)-1-methyl-1H-pyrazol-4-yl]-N-{4-[(1,3-thiazol-2-yl)methyl]phenyl}acrylamide]
